Measurements taken from patent US20110257186A1, “COMPOSITIONS AND METHODS FOR TREATING VISUAL DISORDERS” (priority 2010, published 2011).
Entries after “also recorded” stand apart in the source; their conditions may differ.

System: rat visual cortex
Test: LTP in visual cortex slice
Details: rat primary visual cortex brain slices; fEPSP amplitude after theta burst stimulation; drug infused 20 minutes before LTP induction
Excerpt: The effect of the Ampakine, i.e. benzo[1,2,5]oxadiazol-5-yl-piperidin-1-yl-methanone, in the visual cortex was investigated using brain slices prepared from primary visual cortex to determine if this compound facilitates the induction of long-term potentiation (LTP). LTP is a well established cellular model for synaptic plasticity and the encoding of information. The visual cortex is one synapse removed from the eye and integrates visual signals generated by the retina. It is thus essential for decoding, processing and transforming visual inputs originating in the eye, and proper visual cortical function is necessary for normal vision.
Following decapitation of the anesthetized rat, the brain was rapidly removed and immersed in ice-cold artificial cerebrospinal fluid (ACSF) containing (in mM) NaCl 124, KCl 3, KH2PO4 1.25, CaCl2 3.4, MgSO4 2.5, NaHCO3 26, and D-glucose 10. A block of visual cortex was created by removing the frontal ⅔ portion of the brain and the cerebellum. […] This is repeated 2 additional times with a 1 minute inter-train interval, and the level of LTP was recorded for at least 30 min. Changes in amplitude of the synaptic response were used to measure the extent of LTP, since the amplitude was determined to be the more consistent parameter than the slope of the response. […] LTP was recorded for at least 30 min after induction.

## O=C(c1ccc2nonc2c1)N1CCCCC1 [benzo[1,2,5]oxadiazol-5-yl-piperidin-1-yl-methanone]
  enhancement of visual cortex long-term potentiation (LTP): dose-dependent facilitation of long-term potentiation in rat visual cortex; also recorded: marked and dose-dependent enhancement of visual cortex LTP
